Values quoted from earlier work as cited in patent US12514855B2 (IRR, Inc., priority 2020, dated 2026).

Legend:
[1] = in vivo
[2] = tested on: human rhinovirus (HRV)
[3] = in vivo; remark: listed apart in the source
[4] = biological target: H1 receptor (Homo sapiens, UniProt P35367); details: in an acidic pH
[5] = tested on: histamine induced wheal and flare
[6] = with warfarin, theophylline, digoxin, terfenadine, oral contraceptives, or prednisone
[7] = airway epithelial cells from nose and lung

Chain of H1 receptor (P35367 whole entry): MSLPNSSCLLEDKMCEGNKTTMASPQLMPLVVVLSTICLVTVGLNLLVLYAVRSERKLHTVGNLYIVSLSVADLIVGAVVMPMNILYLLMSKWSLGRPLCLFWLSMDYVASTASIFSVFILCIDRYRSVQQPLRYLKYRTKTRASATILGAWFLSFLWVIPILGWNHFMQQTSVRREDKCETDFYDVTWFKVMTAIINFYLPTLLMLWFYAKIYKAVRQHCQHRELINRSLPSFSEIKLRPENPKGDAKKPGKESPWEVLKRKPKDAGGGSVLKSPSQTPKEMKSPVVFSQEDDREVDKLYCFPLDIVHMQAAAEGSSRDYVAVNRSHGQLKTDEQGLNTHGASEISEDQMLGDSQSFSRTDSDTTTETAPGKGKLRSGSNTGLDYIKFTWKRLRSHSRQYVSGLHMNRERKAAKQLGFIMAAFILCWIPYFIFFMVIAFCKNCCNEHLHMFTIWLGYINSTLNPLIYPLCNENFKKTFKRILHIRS

For O=C(O)COCCN1CCN([C@H](c2ccccc2)c2ccc(Cl)cc2)CC1 [levocetirizine], the “time to steady state level” value [1] is listed as 40 h, the HRV viral replication [2, 7] is listed as “inhibit” and the “HRV-induced ICAM-1” value [2, 7] is listed as “inhibit”. The HRV-induced cytokine expression [2, 7] was “inhibit”, the “levels of HRV-induced increases in ICAM-1” value ([2]; levocetirizine added before, after, or at the time of the HRV infection) was “reduced” and the “dose that can be safely administered” value [3] was “up to 30 mg/day”. For the same compound, the “receptor affinity over first generation mepyramine” value [4] was 5 ×, the “potency through histamine induced wheal and flare data” value ([5]; compared with modern generation antihistamines) was “most potent of the five modern generation antihistamines” and the effectiveness versus fexofenadine ([5]; levocetirizine 5 mg per day vs fexofenadine 180 mg per day) was “more effective than fexofenadine”.
For CC(C)(O)c1ccccc1CC[C@@H](SCC1(CC(=O)O)CC1)c1cccc(/C=C/c2ccc3ccc(Cl)cc3n2)c1 [montelukast], the drug interactions [6] is given as “no drug interactions”.
